Assay results as given in patent publication US11192891B2, “Diazaspiro ROCK inhibitors” (BRISTOL-MYERS SQUIBB COMPANY, priority 2017, dated 2021).

Molecular target: ROCK2 (Homo sapiens, UniProt O75116)
Test: ROCK kinase inhibition assay, FITC peptide substrate, LABCHIP 3000 readout
Assay type: biochemical
Conditions: 5 μM ATP, 1.5 μM peptide substrate
In short: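 Rho kinase variants started the reaction with compound present (DMSO <2%); after incubation, EDTA stop, and phosphorylated and non-phosphorylated peptide separated by microfluidic electrophoresis. Dose-response format, inhibition calculated at each concentration.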

ROCK2, sequence (O75116 whole entry, species assumed): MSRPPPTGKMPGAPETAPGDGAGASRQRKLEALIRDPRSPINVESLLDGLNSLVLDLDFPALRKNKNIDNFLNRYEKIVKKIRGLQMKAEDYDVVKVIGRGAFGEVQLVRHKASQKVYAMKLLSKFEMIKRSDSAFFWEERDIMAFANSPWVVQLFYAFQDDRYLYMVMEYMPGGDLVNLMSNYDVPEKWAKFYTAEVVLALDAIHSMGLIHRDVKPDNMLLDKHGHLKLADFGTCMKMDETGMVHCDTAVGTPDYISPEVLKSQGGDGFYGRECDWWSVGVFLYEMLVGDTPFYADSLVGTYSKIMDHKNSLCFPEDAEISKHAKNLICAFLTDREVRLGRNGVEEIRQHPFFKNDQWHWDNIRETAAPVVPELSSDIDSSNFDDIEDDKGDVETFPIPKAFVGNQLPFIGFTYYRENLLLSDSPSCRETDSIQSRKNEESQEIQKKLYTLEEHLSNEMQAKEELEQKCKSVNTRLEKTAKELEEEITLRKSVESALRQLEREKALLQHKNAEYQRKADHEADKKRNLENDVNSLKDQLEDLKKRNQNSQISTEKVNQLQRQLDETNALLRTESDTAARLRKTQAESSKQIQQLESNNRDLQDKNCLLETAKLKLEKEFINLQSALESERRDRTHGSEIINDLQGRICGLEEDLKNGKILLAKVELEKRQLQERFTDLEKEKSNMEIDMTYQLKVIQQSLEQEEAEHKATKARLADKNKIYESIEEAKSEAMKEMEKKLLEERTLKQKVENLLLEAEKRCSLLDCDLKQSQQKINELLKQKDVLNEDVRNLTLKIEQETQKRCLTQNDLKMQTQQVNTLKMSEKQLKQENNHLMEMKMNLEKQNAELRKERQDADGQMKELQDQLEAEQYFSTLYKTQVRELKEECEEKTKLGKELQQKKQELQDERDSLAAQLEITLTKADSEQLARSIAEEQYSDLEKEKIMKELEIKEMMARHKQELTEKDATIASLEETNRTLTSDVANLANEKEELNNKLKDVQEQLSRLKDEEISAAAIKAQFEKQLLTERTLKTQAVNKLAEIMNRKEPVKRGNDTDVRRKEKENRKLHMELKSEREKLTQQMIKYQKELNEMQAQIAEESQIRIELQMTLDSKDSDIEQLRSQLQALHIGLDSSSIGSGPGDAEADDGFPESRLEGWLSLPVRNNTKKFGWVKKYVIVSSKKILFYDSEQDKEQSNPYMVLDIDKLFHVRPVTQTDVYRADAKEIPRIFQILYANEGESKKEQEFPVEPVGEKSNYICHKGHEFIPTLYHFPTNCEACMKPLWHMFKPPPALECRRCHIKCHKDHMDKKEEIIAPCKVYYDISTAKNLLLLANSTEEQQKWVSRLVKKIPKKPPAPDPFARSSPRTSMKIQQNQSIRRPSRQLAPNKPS

| SMILES | IC50 [nM] |
| --- | --- |
| COc1cc(N2CCC3(CCN(C(=O)c4cc(C5CC5)n[nH]4)CC3)C2=O)ccc1-c1cn[nH]c1 [Example 111, 8-(3-cyclopropyl-1H-pyrazole-5-carbonyl)-2-[3-methoxy-4-(1H-pyrazol-4-yl)phenyl]-2,8-diazaspiro[4.5]decan-1-one] | 17 |
| COc1cc(N2CCC3(CCN(C(=O)c4ccc(Oc5ccc(Cl)cc5)cc4)CC3)C2=O)ccc1-c1cn[nH]c1 [Example 112, 8-[4-(4-chlorophenoxy)benzoyl]-2-[3-methoxy-4-(1H-pyrazol-4-yl)phenyl]-2,8-diazaspiro[4.5]decan-1-one] | 39 |
| COc1ccc(-c2cc(C(=O)N3CCC4(CC3)CCN(c3ccc(-c5cn[nH]c5)c(OC)c3)C4=O)on2)cc1 [Example 113, 2-[3-methoxy-4-(1H-pyrazol-4-yl)phenyl]-8-[3-(4-methoxyphenyl)-1,2-oxazole-5-carbonyl]-2,8-diazaspiro[4.5]decan-1-one] | 17 |
| COc1cc(N2CCC3(CCN(C(=O)c4cc5n(n4)CCNC5=O)CC3)C2=O)ccc1-c1cn[nH]c1 [Example 114, 2-[3-methoxy-4-(1H-pyrazol-4-yl)phenyl]-8-{4-oxo-4H,5H,6H,7H-pyrazolo[1,5-a]pyrazine-2-carbonyl}-2,8-diazaspiro[4.5]decan-1-one] | 6 |
| COc1cc(N2CCC3(CCN(C(=O)c4cnc(Cl)cn4)CC3)C2=O)ccc1-c1cn[nH]c1 [Example 115, 8-(5-chloropyrazine-2-carbonyl)-2-[3-methoxy-4-(1H-pyrazol-4-yl)phenyl]-2,8-diazaspiro[4.5]decan-1-one] | 200 |
| COc1cc(N2CCC3(CCN(C(=O)c4ncc(Br)cn4)CC3)C2=O)ccc1-c1cn[nH]c1 [Example 116, 8-(5-bromopyrimidine-2-carbonyl)-2-[3-methoxy-4-(1H-pyrazol-4-yl)phenyl]-2,8-diazaspiro[4.5]decan-1-one] | 88 |
| COc1cc(N2CCC3(CCN(C(=O)c4ccc(-n5ccccc5=O)cc4)CC3)C2=O)ccc1-c1cn[nH]c1 [Example 117, 2-[3-methoxy-4-(1H-pyrazol-4-yl)phenyl]-8-[4-(2-oxo-1,2-dihydropyridin-1-yl)benzoyl]-2,8-diazaspiro[4.5]decan-1-one] | 7 |
| COc1cc(N2CCC3(CCN(C(=O)c4ccc(-n5cnnn5)cc4)CC3)C2=O)ccc1-c1cn[nH]c1 [Example 118] | 57 |
| COc1cc(N2CCC3(CCN(C(=O)c4ccc5oc(C)nc5c4)CC3)C2=O)ccc1-c1cn[nH]c1 [Example 119, 2-[3-methoxy-4-(1H-pyrazol-4-yl)phenyl]-8-(2-methyl-1,3-benzoxazole-5-carbonyl)-2,8-diazaspiro[4.5]decan-1-one] | 70 |
| COc1cc(N2CCC3(CCN(C(=O)c4ccc(N5CCN(C)CC5)cc4)CC3)C2=O)ccc1-c1cn[nH]c1 [Example 120, 2-[3-methoxy-4-(1H-pyrazol-4-yl)phenyl]-8-[4-(4-methylpiperazin-1-yl)benzoyl]-2,8-diazaspiro[4.5]decan-1-one] | 0.3 |
| COc1cc(N2CCC3(CCN(C(=O)c4cnc(C)nc4)CC3)C2=O)ccc1-c1cn[nH]c1 [Example 121, 2-[3-methoxy-4-(1H-pyrazol-4-yl)phenyl]-8-(2-methylpyrimidine-5-carbonyl)-2,8-diazaspiro[4.5]decan-1-one] | 585 |
| COc1ccc(C(=O)N2CCC3(CC2)CCN(c2ccc(-c4cn[nH]c4)c(OC)c2)C3=O)c(Cl)c1 [Example 122, 8-(2-chloro-4-methoxybenzoyl)-2-[3-methoxy-4-(1H-pyrazol-4-yl)phenyl]-2,8-diazaspiro[4.5]decan-1-one] | 11 |
| COc1cc(N2CCC3(CCN(C(=O)c4ccc(Cl)cn4)CC3)C2=O)ccc1-c1cn[nH]c1 [Example 123, 8-(5-chloropyridine-2-carbonyl)-2-[3-methoxy-4-(1H-pyrazol-4-yl)phenyl]-2,8-diazaspiro[4.5]decan-1-one] | 65 |
| COc1cc(N2CCC3(CCN(C(=O)c4ccc(-n5cccn5)cc4)CC3)C2=O)ccc1-c1cn[nH]c1 [Example 124, 2-[3-methoxy-4-(1H-pyrazol-4-yl)phenyl]-8-[4-(1H-pyrazol-1-yl)benzoyl]-2,8-diazaspiro[4.5]decan-1-one] | 62 |
| COc1cc(N2CCC3(CCN(C(=O)c4nnc(-c5ccccn5)[nH]c4=O)CC3)C2=O)ccc1-c1cn[nH]c1 [Example 125, 2-[3-methoxy-4-(1H-pyrazol-4-yl)phenyl]-8-[5-oxo-3-(pyridin-2-yl)-4,5-dihydro-1,2,4-triazine-6-carbonyl]-2,8-diazaspiro[4.5]decan-1-one] | 26 |
| COc1cc(N2CCC3(CCN(C(=O)c4ccc(N5CCCNC5=O)cc4)CC3)C2=O)ccc1-c1cn[nH]c1 [Example 126, 2-[3-methoxy-4-(1H-pyrazol-4-yl)phenyl]-8-[4-(2-oxo-1,3-diazinan-1-yl)benzoyl]-2,8-diazaspiro[4.5]decan-1-one] | 7.7 |

| SMILES | IC50 [nM] |
| --- | --- |
| COc1cc(N2CCC3(CCN(C(=O)c4ccc(N5CCOCC5)c(F)c4)CC3)C2=O)ccc1-c1cn[nH]c1 [Example 127, 8-[3-fluoro-4-(morpholin-4-yl)benzoyl]-2-[3-methoxy-4-(1H-pyrazol-4-yl)phenyl]-2,8-diazaspiro[4.5]decan-1-one] | 11.2 |
| COc1cc(N2CCC3(CCN(C(=O)c4ccc(N5CCCC5=O)cc4)CC3)C2=O)ccc1-c1cn[nH]c1 [Example 128, 2-[3-methoxy-4-(1H-pyrazol-4-yl)phenyl]-8-[4-(2-oxopyrrolidin-1-yl)benzoyl]-2,8-diazaspiro[4.5]decan-1-one] | 13 |
| COc1cc(N2CCC3(CCN(C(=O)c4cc(=O)n5nnnc5[nH]4)CC3)C2=O)ccc1-c1cn[nH]c1 [Example 129, 2-[3-methoxy-4-(1H-pyrazol-4-yl)phenyl]-8-{7-oxo-4H,7H-[1,2,3,4]tetrazolo[1,5-a]pyrimidine-5-carbonyl}-2,8-diazaspiro[4.5]decan-1-one] | 292 |
| COc1cc(N2CCC3(CCN(C(=O)c4ccc(N5CCNCC5)cc4)CC3)C2=O)ccc1-c1cn[nH]c1 [Example 130, 2-[3-methoxy-4-(1H-pyrazol-4-yl)phenyl]-8-[4-(piperazin-1-yl)benzoyl]-2,8-diazaspiro[4.5]decan-1-one] | 0.4 |
| COc1cc(N2CCC3(CCN(C(=O)c4cn5[nH]c(=O)cc5nc4C)CC3)C2=O)ccc1-c1cn[nH]c1 [Example 131, 2-[3-methoxy-4-(1H-pyrazol-4-yl)phenyl]-8-{5-methyl-2-oxo-1H,2H-pyrazolo[1,5-a]pyrimidine-6-carbonyl}-2,8-diazaspiro[4.5]decan-1-one] | 2090 |
| COc1cc(N2CCC3(CCN(C(=O)c4cc(C)n5nc[nH]c(=O)c45)CC3)C2=O)ccc1-c1cn[nH]c1 [Example 132, 2-[3-methoxy-4-(1H-pyrazol-4-yl)phenyl]-8-{7-methyl-4-oxo-3H,4H-pyrrolo[2,1-f][1,2,4]triazine-5-carbonyl}-2,8-diazaspiro[4.5]decan-1-one] | 3 |
| COc1cc(N2CCC3(CCN(C(=O)c4cn5nc[nH]c(=O)c5c4C)CC3)C2=O)ccc1-c1cn[nH]c1 [Example 133, 2-[3-methoxy-4-(1H-pyrazol-4-yl)phenyl]-8-{5-methyl-4-oxo-3H,4H-pyrrolo[2,1-f][1,2,4]triazine-6-carbonyl}-2,8-diazaspiro[4.5]decan-1-one] | 88 |
| COc1cc(N2CCC3(CCN(C(=O)c4ccc(-c5noc(C(C)C)n5)cc4)CC3)C2=O)ccc1-c1cn[nH]c1 [Example 134, 2-[3-methoxy-4-(1H-pyrazol-4-yl)phenyl]-8-{4-[5-(propan-2-yl)-1,2,4-oxadiazol-3-yl]benzoyl}-2,8-diazaspiro[4.5]decan-1-one] | 75 |
| COc1cc(N2CCC3(CCN(C(=O)c4ccc(-c5cncnc5)cc4)CC3)C2=O)ccc1-c1cn[nH]c1 [Example 135, 2-[3-methoxy-4-(1H-pyrazol-4-yl)phenyl]-8-[4-(pyrimidin-5-yl)benzoyl]-2,8-diazaspiro[4.5]decan-1-one] | 10 |
| COc1cc(N2CCC3(CCN(C(=O)c4ccc(-n5ccncc5=O)cc4F)CC3)C2=O)ccc1-c1cn[nH]c1 [Example 136, 8-[2-fluoro-4-(2-oxo-1,2-dihydropyrazin-1-yl)benzoyl]-2-[3-methoxy-4-(1H-pyrazol-4-yl)phenyl]-2,8-diazaspiro[4.5]decan-1-one] | 4.2 |
| COc1cc(N2CCC3(CCN(C(=O)c4ccc(N5CCCOC5=O)cc4)CC3)C2=O)ccc1-c1cn[nH]c1 [Example 137, 2-[3-methoxy-4-(1H-pyrazol-4-yl)phenyl]-8-[4-(2-oxo-1,3-oxazinan-3-yl)benzoyl]-2,8-diazaspiro[4.5]decan-1-one] | 7.1 |
| COc1cc(N2CCC3(CCN(C(=O)c4ccc5nc(C(F)(F)F)cnc5c4)CC3)C2=O)ccc1-c1cn[nH]c1 [Example 138, 2-[3-methoxy-4-(1H-pyrazol-4-yl)phenyl]-8-[2-(trifluoromethyl)quinoxaline-6-carbonyl]-2,8-diazaspiro[4.5]decan-1-one] | 63 |
| COc1cc(N2CCC3(CCN(C(=O)c4ccc(N5CCNC5=O)cc4)CC3)C2=O)ccc1-c1cn[nH]c1 [Example 139, 2-[3-methoxy-4-(1H-pyrazol-4-yl)phenyl]-8-[4-(2-oxoimidazolidin-1-yl)benzoyl]-2,8-diazaspiro[4.5]decan-1-one] | 3.7 |
| COc1cc(N2CCC3(CCN(C(=O)C4CCN(c5ncccn5)CC4)CC3)C2=O)ccc1-c1cn[nH]c1 [Example 140, 2-[3-methoxy-4-(1H-pyrazol-4-yl)phenyl]-8-[1-(pyrimidin-2-yl)piperidine-4-carbonyl]-2,8-diazaspiro[4.5]decan-1-one] | 1240 |
| COc1cc(N2CCC3(CCN(C(=O)c4ccc(N5CCOC5=O)cc4)CC3)C2=O)ccc1-c1cn[nH]c1 [Example 141, 2-[3-methoxy-4-(1H-pyrazol-4-yl)phenyl]-8-[4-(2-oxo-1,3-oxazolidin-3-yl)benzoyl]-2,8-diazaspiro[4.5]decan-1-one] | 3 |
| COc1cc(N2CCC3(CCN(C(=O)c4ccc(N5CCCCC5=O)cc4)CC3)C2=O)ccc1-c1cn[nH]c1 [Example 142, 2-[3-methoxy-4-(1H-pyrazol-4-yl)phenyl]-8-[4-(2-oxopiperidin-1-yl)benzoyl]-2,8-diazaspiro[4.5]decan-1-one] | 8.8 |
